Data on 21 compounds can be found in patent US12606541B2, “PPARg modulators and methods of use” (Eisai R&D Management Co., Ltd., priority 2020, dated 2026).

One experiment relates to UM-UC-9 engineered cells. Put plainly: Cell proliferation / short-term viability assay, CellTiter-Glo 144 h. It is filed as cell-based, human. Conditions: read-out: CTGlo 144 h UMUC9.5, G150. The gist of the method: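 Viability read by CellTiter-Glo 2.0 luminescence at day 7 versus DMSO-vehicle wells and a T0 plate measured on day 0. Cells: UM-UC-9 engineered assay-ready stocks, 500 cells/well in high-glucose DMEM with 10% FBS, 37° C, 5% CO2.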
(In general: In ATP-based viability assays light output follows the ATP content of the culture.)

The target of a further experiment is T1, His6-TEV-PPARγ-(234-505) (Homo sapiens, UniProt P37231).
T1 construct: The His6-TEV-PPARγ-(234-505) protein for assay was expressed and purified; TEV cleavage site (N); made in house
T1 sequence (P37231 234-505): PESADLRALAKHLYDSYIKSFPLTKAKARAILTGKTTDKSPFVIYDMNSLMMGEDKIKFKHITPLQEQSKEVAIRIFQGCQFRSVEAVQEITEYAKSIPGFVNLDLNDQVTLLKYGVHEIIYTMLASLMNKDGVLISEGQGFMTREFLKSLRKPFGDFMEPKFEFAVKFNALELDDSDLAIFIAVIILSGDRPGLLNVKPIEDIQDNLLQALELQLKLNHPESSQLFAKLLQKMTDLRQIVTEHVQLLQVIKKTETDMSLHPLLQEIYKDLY
Put plainly: TR-FRET Assay to Measure Co-R Peptide Recruitment to PPARγ. It is filed as biochemical. Conditions: Co-R peptide (SMRT-ID2) recruitment; top final concentration 20 μM; read-out: TR-FRET i-Ag; AC50. The method, boiled down:
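Corepressor recruitment is measured by adding terbium-labeled anti-His antibody and FITC SMRT-ID2 peptide, at 5 and 200 nM final, after a 20-minute room-temperature protein–compound incubation. After one further hour, signal is converted to percent response between DMSO and 500 nM T0070907 wells.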
(TR-FRET usually uses a lanthanide donor and a delayed reading to cut background.)

The structures appear in SMILES notation. Like-named read-outs stand apart in the source and are kept apart here.

For the compound `Cc1cc(-c2cc(C(=O)N3CCC(C(=O)NCc4ccc5[nH]ccc5c4)CC3)n[nH]2)c(F)cn1` [Example 271, 1-[5-(5-fluoro-2-methylpyridin-4-yl)-1H-pyrazole-3-carbonyl]-N-(1H-indol-5-ylmethyl)piperidine-4-carboxamide], in the experiment with UM-UC-9 engineered cells (Homo sapiens, UM-UC-9, 144 h), the IC50 worked out at 0.0303 µM. In addition, the AC50 on His6-TEV-PPARγ-(234-505) stood at 0.0061 µM.
In the case of `COc1cc(-c2cc(C(=O)N3CCC(C(=O)NC4CCOc5cc(F)cnc54)CC34CC4)n[nH]2)c(F)cn1` (mixture of isomers) [Example 383, (S)-4-(5-(5-fluoro-2-methoxypyridin-4-yl)-1H-pyrazole-3-carbonyl)-N—((R)-7-fluoro-3,4-dihydro-2H-pyrano[3,2-b]pyridin-4-yl)-4-azaspiro[2.5]octane-7-carboxamide and (S)-4-(5-(5-fluoro-2-methoxypyridin-4-yl)-1H-pyrazole-3-carbonyl)-N—((S)-7-fluoro-3,4-dihydro-2H-pyrano[3,2-b]pyridin-4-yl)-4-azaspiro[2.5]octane-7-carboxamide], in the experiment on UM-UC-9 engineered cells, the IC50 amounted to 0.0431 µM. In addition, the AC50 at His6-TEV-PPARγ-(234-505) came to 0.0331 µM.
In the case of `COc1cc(-c2cc(C(=O)N3CCC(C(=O)NCc4cc(C(F)F)on4)CC3)n[nH]2)c(Cl)cn1` [Example 225, 1-(5-(5-chloro-2-methoxypyridin-4-yl)-1H-pyrazole-3-carbonyl)-N-((5-(difluoromethyl)isoxazol-3-yl)methyl)piperidine-4-carboxamide], the IC50 in the experiment with UM-UC-9 engineered cells (Homo sapiens, UM-UC-9, 144 h) is 1.72 µM. For the same compound, the AC50 on His6-TEV-PPARγ-(234-505) is 0.327 µM.
As for `COc1cc(-c2cc(C(=O)N3CC[C@@H](C(=O)N[C@H]4CC[C@@](OCCN(C)C)(C(F)(F)F)CC4)CC34CC4)n[nH]2)c(F)cn1` [Example 329-B, (R)—N-((1r,4R)-4-(2-(dimethylamino)ethoxy)-4-(trifluoromethyl)cyclohexyl)-4-(5-(5-fluoro-2-methoxypyridin-4-yl)-1H-pyrazole-3-carbonyl)-4-azaspiro[2.5]octane-7-carboxamide], the IC50 in the experiment with UM-UC-9 engineered cells (Homo sapiens, UM-UC-9, 144 h) is 1.65 µM. Besides, the AC50 at His6-TEV-PPARγ-(234-505) amounted to 0.452 µM.
Take `COc1cc(-c2cc(C(=O)N3CCC(C(=O)NCc4cc(F)ccc4Cl)CC3)n[nH]2)c(Cl)cn1` [Example 125, 1-(5-(5-chloro-2-methoxypyridin-4-yl)-1H-pyrazole-3-carbonyl)-N-(2-chloro-5-fluorobenzyl)piperidine-4-carboxamide]: in the experiment with UM-UC-9 engineered cells (Homo sapiens, UM-UC-9, 144 h), the IC50 was determined as 0.301 µM. The AC50 on His6-TEV-PPARγ-(234-505) amounted to 0.0246 µM.
The matching figures for `Cc1cc(-c2cc(C(=O)N3[C@@H]4CC[C@H]3C[C@H](C(=O)N[C@H]3CC[C@@](O)(C(F)(F)F)CC3)C4)n[nH]2)ncn1` [Example 279, (1R,3s,5S)—N-((1r,4R)-4-hydroxy-4-(trifluoromethyl)cyclohexyl)-8-(5-(6-methylpyrimidin-4-yl)-1H-pyrazole-3-carbonyl)-8-azabicyclo[3.2.1]octane-3-carboxamide]: 0.29 µM and 0.0246 µM.
For `COc1cc(-c2cc(C(=O)N3CCC(C(=O)NCc4cncc(Cl)c4)CC3)n[nH]2)c(Cl)cn1` [Example 179, 1-(5-(5-chloro-2-methoxypyridin-4-yl)-1H-pyrazole-3-carbonyl)-N-((5-chloropyridin-3-yl)methyl)piperidine-4-carboxamide] the same measures were 1.53 µM and 0.321 µM.
For `COc1cc(-c2cc(C(=O)N3CCC(NC(=O)C4CCC(O)(C(F)(F)F)CC4)CC34CC4)n[nH]2)c(F)cn1` (single isomer, unassigned) [Example 347-D], the IC50 in the experiment on UM-UC-9 engineered cells was greater than 10 µM. Moreover, on His6-TEV-PPARγ-(234-505), the AC50 is no less than 20 µM.
Regarding `COc1cc(-c2cc(C(=O)N3CC[C@H](C(=O)NCc4ncc(N5CC6CC5CN6)cc4Cl)CC34CC4)n[nH]2)c(F)cn1` (single isomer, unassigned) [Example 462-B], the IC50 in the experiment on UM-UC-9 engineered cells was determined as 0.573 µM. Also, the AC50 at His6-TEV-PPARγ-(234-505) was found to be 0.0144 µM.
As for `COc1cc(-c2cc(C(=O)N3CC[C@H](C(=O)NCc4ncc(C(F)(F)F)[nH]4)CC34CC4)[nH]n2)c(F)cn1` [Example 476, (S)-4-(3-(5-fluoro-2-methoxypyridin-4-yl)-1H-pyrazole-5-carbonyl)-N-((5-(trifluoromethyl)-1H-imidazol-2-yl)methyl)-4-azaspiro[2.5]octane-7-carboxamide], the IC50 in the experiment on UM-UC-9 engineered cells (Homo sapiens, UM-UC-9, 144 h) was 0.406 µM. Moreover, the AC50 at His6-TEV-PPARγ-(234-505) turned out to be 0.0174 µM.
The matching figures for `COc1cc(-c2cc(C(=O)N3CC[C@H](C(=O)NCc4ncc(C(C)(C)O)cc4Cl)CC34CC4)n[nH]2)c(F)cn1` [Example 364, (S)—N-((3-chloro-5-(2-hydroxypropan-2-yl)pyridin-2-yl)methyl)-4-(5-(5-fluoro-2-methoxypyridin-4-yl)-1H-pyrazole-3-carbonyl)-4-azaspiro[2.5]octane-7-carboxamide]: 0.0562 µM and 0.0131 µM.
Turning to `COc1cc(-c2cc(C(=O)N3CCC(C(=O)NC(C)C45CCC(O)(CC4)CC5)CC34CC4)n[nH]2)c(F)cn1` (mixture of isomers) [Example 411, (S)-4-(5-(5-fluoro-2-methoxypyridin-4-yl)-1H-pyrazole-3-carbonyl)-N—((R)-1-(4-hydroxybicyclo[2.2.2]octan-1-yl)ethyl)-4-azaspiro[2.5]octane-7-carboxamide and (S)-4-(5-(5-fluoro-2-methoxypyridin-4-yl)-1H-pyrazole-3-carbonyl)-N—((S)-1-(4-hydroxybicyclo[2.2.2]octan-1-yl)ethyl)-4-azaspiro[2.5]octane-7-carboxamide], in the experiment on UM-UC-9 engineered cells, the IC50 came out at 0.0601 µM. For the same compound, the AC50 on His6-TEV-PPARγ-(234-505) stood at 0.0372 µM.
Regarding `COc1cc(-c2cc(C(=O)N3CC[C@H](C(=O)NCc4cccc(Cl)c4)CC34CCC4)n[nH]2)c(Cl)cn1` (single isomer, unassigned) [Example 256-A], the IC50 in the experiment with UM-UC-9 engineered cells (Homo sapiens, UM-UC-9, 144 h) was determined as 0.0726 µM. In addition, the AC50 on His6-TEV-PPARγ-(234-505) turned out to be 0.0924 µM.
Take `COc1cc(-c2cc(C(=O)N3CC[C@H](C(=O)NCc4nnccc4C)CC34CC4)n[nH]2)c(F)cn1` [Example 386, (S)-4-(5-(5-fluoro-2-methoxypyridin-4-yl)-1H-pyrazole-3-carbonyl)-N-((4-methylpyridazin-3-yl)methyl)-4-azaspiro[2.5]octane-7-carboxamide]: in the experiment on UM-UC-9 engineered cells (Homo sapiens, UM-UC-9, 144 h), the IC50 was 0.231 µM. The AC50 on His6-TEV-PPARγ-(234-505) stood at 0.181 µM.
`COc1cc(-c2cc(C(=O)N3CCC(C(=O)Nc4cnn5ccc(C6CC6C#N)nc45)CC34CC4)n[nH]2)c(F)cn1` (mixture of isomers) [Example 466, (S)—N-(5-((1S,2S)-2-cyanocyclopropyl)pyrazolo[1,5-a]pyrimidin-3-yl)-4-(5-(5-fluoro-2-methoxypyridin-4-yl)-1H-pyrazole-3-carbonyl)-4-azaspiro[2.5]octane-7-carboxamide and (S)—N-(5-((1R,2R)-2-cyanocyclopropyl)pyrazolo[1,5-a]pyrimidin-3-yl)-4-(5-(5-fluoro-2-methoxypyridin-4-yl)-1H-pyrazole-3-carbonyl)-4-azaspiro[2.5]octane-7-carboxamide]: the IC50 in the experiment with UM-UC-9 engineered cells amounted to 0.0512 µM. Further, the AC50 on His6-TEV-PPARγ-(234-505) is 0.0051 µM.
As for `COc1cc(-c2cc(C(=O)N3CCC(C(=O)NCc4cccc(Cl)c4)CC3)n[nH]2)c(F)cn1` [Example 159, N-(3-chlorobenzyl)-1-(5-(5-fluoro-2-methoxypyridin-4-yl)-1H-pyrazole-3-carbonyl)piperidine-4-carboxamide], in the experiment with UM-UC-9 engineered cells (Homo sapiens, UM-UC-9, 144 h), the IC50 turned out to be 0.0624 µM. The AC50 on His6-TEV-PPARγ-(234-505) was determined as 0.0271 µM.
Consider `COc1cc(-c2cc(C(=O)N3CCC(C(=O)NCC4CCn5cncc5C4)CC34CC4)n[nH]2)c(F)cn1` (single isomer, unassigned) [Example 342-B], for which the IC50 with UM-UC-9 engineered cells was found to be 0.682 µM. In addition, the AC50 on His6-TEV-PPARγ-(234-505) was determined as 0.0428 µM.
On to `COc1cc(-c2cc(C(=O)N3CC[C@H](C(=O)N[C@@H]4CCN(CC(C)(C)O)C4)CC34CC4)[nH]n2)c(F)cn1` [Example 344-B, (S)-4-(3-(5-fluoro-2-methoxypyridin-4-yl)-1H-pyrazole-5-carbonyl)-N—((R)-1-(2-hydroxy-2-methylpropyl)pyrrolidin-3-yl)-4-azaspiro[2.5]octane-7-carboxamide], for which the IC50 with UM-UC-9 engineered cells (Homo sapiens, UM-UC-9, 144 h) stood at 0.57 µM. Besides, on His6-TEV-PPARγ-(234-505), the AC50 worked out at 0.123 µM.
Consider `COc1cc(-c2cc(C(=O)N3CC[C@H](C(=O)NC(C)c4cn5c(n4)COCC5)CC34CC4)n[nH]2)c(F)cn1` (single isomer, unassigned) [Example 415-B], for which the IC50 in the experiment on UM-UC-9 engineered cells worked out at 0.867 µM. In addition, at His6-TEV-PPARγ-(234-505), the AC50 is 0.283 µM.
Consider `COc1cc(-c2cc(C(=O)N3CCC(C(=O)NC4CCN(c5ccccc5F)C4)CC3)n[nH]2)c(Cl)cn1` (racemic) [Example 222, 1-(5-(5-chloro-2-methoxypyridin-4-yl)-1H-pyrazole-3-carbonyl)-N-(1-(2-fluorophenyl)pyrrolidin-3-yl)piperidine-4-carboxamide], for which, in the experiment with UM-UC-9 engineered cells (Homo sapiens, UM-UC-9, 144 h), the IC50 came out at 0.208 µM. On His6-TEV-PPARγ-(234-505), the AC50 amounted to 0.0185 µM.
For `COc1cc(-c2cc(C(=O)N3[C@@H]4CC[C@H]3C[C@H](C(=O)NCc3cccc(Cl)c3)C4)n[nH]2)c(F)cn1` [Example 160-A, (1R,3s,5S)—N-(3-chlorobenzyl)-8-(5-(5-fluoro-2-methoxypyridin-4-yl)-1H-pyrazole-3-carbonyl)-8-azabicyclo[3.2.1]octane-3-carboxamide] the same measures were 0.0382 µM and 0.0115 µM.
